ChEMBL document CHEMBL4251673, “Structurally Diverse Diterpenoids from Sandwithia guyanensis” (J Nat Prod, 2018)

Key:
[1] = Selectivity index, ratio of CC50 for African green monkey Vero cells to EC50 for Chikungunya virus Indian Ocean 889 infected in African green monkey Vero cells; type: toxicity; conditions: read-out: Ratio CC50/EC50
Chikungunya virus = test: Antiviral activity against Chikungunya virus Indian Ocean 889 infected in African green monkey Vero cells assessed as inhibition of virus-induced cytopathic effect after 7 days by MTS method; type: functional, organism-based; conditions: Indian Ocean 889, Vero, 168 h

## C/C1=C\[C@@H]2[C@H](CC[C@]3(C)O[C@H]3C3=C(C1=O)[C@@H](O)[C@H](C)C3=O)C2(C)C
[1]
  selectivity ratio: 1.92
Chikungunya virus
  EC50: 14 µM
